# Assay results: ChEMBL document CHEMBL1140075 (J Med Chem, 2008)
# Active and inactive are the calls of the source. No cut-off for these calls is given here. Positions of bridges follow the written chain, without caps; N, C: chain ends. Residues, ends and D or L forms follow the SMILES beside them.
# Columns and labels:
# [1] = molecular target: Neuronal acetylcholine receptor subunit alpha-7 (Rattus norvegicus, UniProt Q05941)
# [2] = molecular target: Acetylcholine-binding protein (Lymnaea stagnalis, UniProt P58154)
# Acetylcholine-binding protein, sequence (P58154 whole entry): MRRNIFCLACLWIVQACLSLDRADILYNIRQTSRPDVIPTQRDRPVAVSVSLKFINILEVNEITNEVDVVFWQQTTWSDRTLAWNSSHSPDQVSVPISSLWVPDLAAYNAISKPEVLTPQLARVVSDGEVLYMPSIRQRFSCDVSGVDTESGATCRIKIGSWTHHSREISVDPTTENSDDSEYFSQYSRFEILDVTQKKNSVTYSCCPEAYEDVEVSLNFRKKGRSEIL
# [3] = molecular target: Neuronal acetylcholine receptor subunit alpha-7 (Rattus norvegicus) (UniProt Q05941); test: Activity at rat alpha7 nAChR expressed in Xenopus laevis assessed as inhibition of acetylcholine-induced current at holding potential of -80 mV up to 1 uM by two-electrode voltage clamp technique
# Neuronal acetylcholine receptor subunit alpha-7 (Rattus norvegicus), sequence (Q05941 whole entry): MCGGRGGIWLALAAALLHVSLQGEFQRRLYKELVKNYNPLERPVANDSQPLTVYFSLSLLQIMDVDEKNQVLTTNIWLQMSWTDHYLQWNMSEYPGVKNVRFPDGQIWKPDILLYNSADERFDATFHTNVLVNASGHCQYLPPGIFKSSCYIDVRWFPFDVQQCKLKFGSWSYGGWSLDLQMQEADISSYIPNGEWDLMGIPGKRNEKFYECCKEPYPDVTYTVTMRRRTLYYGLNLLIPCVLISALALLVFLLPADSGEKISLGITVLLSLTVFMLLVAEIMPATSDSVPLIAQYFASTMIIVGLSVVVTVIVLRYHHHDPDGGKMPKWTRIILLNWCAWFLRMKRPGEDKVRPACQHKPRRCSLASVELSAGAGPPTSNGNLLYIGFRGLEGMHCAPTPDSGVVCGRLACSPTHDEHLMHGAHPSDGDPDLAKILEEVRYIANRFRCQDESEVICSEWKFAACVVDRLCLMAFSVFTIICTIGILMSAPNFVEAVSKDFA
# [4] = Stability assessed as half life of native globular conformation state in presence of reduced glutathione at 500 uM; type: physicochemical; conditions: solution with 500 uM reduced glutathione
# [5] = Stability assessed as loss of native globular conformation level in presence of reduced glutathione at 500 uM at 2 hrs; type: physicochemical; conditions: solution with 500 uM reduced glutathione; read-out: Activity
# [6] = molecular target: Neuronal acetylcholine receptor subunit alpha-7 (Rattus norvegicus) (UniProt Q05941); test: Activity at rat alpha7 nAChR expressed in Xenopus laevis assessed as inhibition of acetylcholine-induced current at holding potential of -80 mV up to 10 uM by two-electrode voltage clamp technique
# physchem = conditions: solution with 500 uM reduced glutathione
# [7] = Stability assessed as native globular conformation level in presence of reduced glutathione at 500 uM at 24 hrs; type: physicochemical; conditions: solution with 500 uM reduced glutathione; read-out: Stability
# Neuronal acetylcholine receptor subunit alpha-7, sequence (Q05941 whole entry): as above
SMILES,IC50 [1] [nM],Ki [2] [nM],Activity [3],half-life [4] [h],degraded at 2 h [5] [%],Activity [6],"remaining at 8 h, 500 µM (physchem) [%]",remaining at 24 h [7] [%]
"CC(C)C[C@@H]1NC(=O)[C@H](CO)NC(=O)[C@@H]2CSSC[C@@H](C(=O)O)NC(=O)[C@H](Cc3ccc(O)cc3)NC(=O)[C@H](CC(=O)O)NC(=O)[C@@H]3CCCN3C(=O)[C@H](CC(N)=O)NC(=O)[C@H](CC(N)=O)NC(=O)[C@H](C)NC(=O)[C@H](C)NC(=O)[C@H](CSSC[C@H](NC(=O)CN)C(=O)N2)NC(=O)[C@@H]2CCCN2C(=O)[C@@H]2CCCN2C1=O (H-GCCSLPPCAANNPDYC-OH; disulfide 2-8, 3-16)",252,124,,,,,,
"CC(C)C[C@@H]1NC(=O)[C@H](C)NC(=O)[C@@H]2CSSC[C@H](NC(=O)CN)C(=O)N[C@@H](CSSC[C@@H](C(=O)O)NC(=O)[C@H](CC(N)=O)NC1=O)C(=O)N[C@@H](CO)C(=O)N[C@@H](CC(C)C)C(=O)N1CCC[C@H]1C(=O)N1CCC[C@H]1C(=O)N2 (H-GCCSLPPCALNC-OH; disulfide 2-8, 3-12)",> 10000,7900,inactive,< 0.5,> 80,,,
"CC(C)C[C@@H]1NC(=O)[C@H](C)NC(=O)[C@@H]2CSSC[C@H](NC(=O)CN)C(=O)N[C@@H](CSSC[C@@H](C(=O)O)NC(=O)[C@H](CC(N)=O)NC(=O)[C@H](CC(N)=O)NC1=O)C(=O)N[C@@H](CO)C(=O)N[C@@H](CC(C)C)C(=O)N1CCC[C@H]1C(=O)N1CCC[C@H]1C(=O)N2 (H-GCCSLPPCALNNC-OH; disulfide 2-8, 3-13)",207,4500,,< 0.5,> 80,,,
"CC(C)C[C@@H]1NC(=O)[C@H](C)NC(=O)[C@@H]2CSSC[C@H](NC(=O)CN)C(=O)N[C@@H](CSSC[C@@H](C(=O)O)NC(=O)[C@@H]3CCCN3C(=O)[C@H](CC(N)=O)NC(=O)[C@H](CC(N)=O)NC1=O)C(=O)N[C@@H](CO)C(=O)N[C@@H](CC(C)C)C(=O)N1CCC[C@H]1C(=O)N1CCC[C@H]1C(=O)N2 (H-GCCSLPPCALNNPC-OH; disulfide 2-8, 3-14)",79,4600,,< 0.5,> 80,,,
"CC(C)C[C@@H]1NC(=O)[C@H](C)NC(=O)[C@@H]2CSSC[C@H](NC(=O)CN)C(=O)N[C@@H](CSSC[C@@H](C(=O)O)NC(=O)[C@H](CC(=O)O)NC(=O)[C@@H]3CCCN3C(=O)[C@H](CC(N)=O)NC(=O)[C@H](CC(N)=O)NC1=O)C(=O)N[C@@H](CO)C(=O)N[C@@H](CC(C)C)C(=O)N1CCC[C@H]1C(=O)N1CCC[C@H]1C(=O)N2 (H-GCCSLPPCALNNPDC-OH; disulfide 2-8, 3-15)",115,3100,,2,,inactive,40,
"CC(C)C[C@@H]1NC(=O)[C@H](C)NC(=O)[C@@H]2CSSC[C@H](NC(=O)CN)C(=O)N[C@@H](CSSC[C@@H](C(=O)O)NC(=O)[C@H](CC(N)=O)NC1=O)C(=O)N[C@@H](CO)C(=O)N[C@@H](CC(C)C)C(=O)N1CCC[C@H]1C(=O)N[C@@H](CCCNC(=N)N)C(=O)N2 (H-GCCSLPRCALNC-OH; disulfide 2-8, 3-12)",,,,1,,inactive,,40
